Source: patent US8697659B2, “Analogues of glycolipids useful as immunoadjuvants” (Luigi Panza, priority 2007, dated 2014)

Columns and labels:
[1] = Solubility in water; type: physicochemical
Protocol: In some embodiments, the compounds of the invention have a solubility of at least about 0.5 mg/mL, 1 mg/mL, 2 mg/mL, 5 mg/mL, 7.5 mg/mL, 10 mg/mL, 12.5 mg/mL, 15 mg/mL, 17.5 mg/mL, 20 mg/mL, 25 mg/mL, 30 mg/mL, 40 mg/mL, 50 mg/mL, 75 mg/mL, 100 mg/mL, 150 mg/mL or 200 mg/mL in an aqueous solution.

[2] = tested on: mouse T cell hybridomas FF13; assay: IL-2 secretion by recognition of glycolipids by a murine NKT cell line (FF13 hybridoma, THP1 hCD1d as APC, ELISA); type: cell-based; conditions: at 10 micromolar; CD1d-transfected THP-1 cells exposed two hours to test compound; IL-2 in medium determined 48 hrs later
Protocol: As a measure of T cell activation, IL2 release into the culture medium was determined after 48 hours culture by an ELISA assay. […] The x-axis is amount of glycolipid in μg/ml.
The biological evaluation of compounds of the invention uses mouse Vα14i NKT cells immortalized by cell fusion to give hybridomas FF13 through the presentation by APC (THP1). As a measure of T cell activation, IL2 release into the culture medium was determined after 48 hours culture by an ELISA assay. […]
100 μl FF13 in complete medium were added (10×10^4 per well) and after 48 hours the tests were evaluated for IL2 production.
IL2 concentration is evaluated by ELISA using a primary monoclonal Anti-mouse IL-2 Antibody (R&D System), a biotinylated detection anti-mouse IL-2 Antibody (R&D System) and as color developer SIGMA FAST OPD. […]
FIG. 2 depicts the IL2 levels released by cells that had been treated with compounds 13-16, compared to the effect of alpha-GalCer itself, in an NKT cell hybridoma test. The a-GalCer specific NKT hybridoma cells were added to CD1d-transfected THP-1 cells that had been exposed for two hours to various doses of the test compound (about 0.1 to about 10 μg/mL), and IL-2 levels in the medium were determined 48 hrs later.

CCCCCCCCCCCCCCCCCCCCCCCCCC(=O)N[C@@H](CO[C@H]1OC(CO)[C@H](O)C(O)C1O)[C@H](O)[C@H](O)COCCCc1ccccc1 (stereo partly drawn) [Compound 15]
solubility in water [1]: soluble in water

CCCCCCCCCCCCCCCCCCCCCCCCCC(=O)N[C@@H](CO[C@H]1OC(CO)[C@H](O)C(O)C1O)[C@H](O)[C@H](O)COCCCc1ccccc1 (stereo partly drawn) [Compound 16]
IL2 levels released, compared to the effect of alpha-GalCer [2]: as effective as a-GalCer

CCCCCCCCCCCCCCCCCCCCCCCCCC(=O)N[C@@H](COC1OC(CO)C(O)C(O)C1O)[C@H](O)[C@H](O)COCCOCCCC (stereo partly drawn) [Compound 13, (2S,3S,4R)-5-O-(2-butoxyetil)-2-(N-exacosanoylamino)-1-O-(α-D-galactopyranosyl)-1,3,4,5-pentanetetraol]
IL2 levels released, compared to the effect of alpha-GalCer [2]: as effective as a-GalCer
